According to PubChem BioAssay AID504680 (Sanford-Burnham Center for Chemical Genomics, 2011):
Activity calls are given as the source filed them.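 Rule for the calls: active = IC50 below 100 µM in the TR-FRET assay, unless also active in the caspase-3 counter assay; inactive = the rest, including compounds also active in caspase-3.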

Target: Caspase-3 (Homo sapiens) (UniProt P42574)
Experiment: caspase-3 inhibitors as false-positive filter, SAR follow-up, counter-screen for UBC13 polyubiquitin inhibitor project, biochemical, luminescence, Caspase-Glo 3/7 (AID 504680)
Conditions: recombinant caspase-3, Caspase-Glo luminescence, 60 min

Caspase-3 (Homo sapiens), sequence (P42574 whole entry, looked up): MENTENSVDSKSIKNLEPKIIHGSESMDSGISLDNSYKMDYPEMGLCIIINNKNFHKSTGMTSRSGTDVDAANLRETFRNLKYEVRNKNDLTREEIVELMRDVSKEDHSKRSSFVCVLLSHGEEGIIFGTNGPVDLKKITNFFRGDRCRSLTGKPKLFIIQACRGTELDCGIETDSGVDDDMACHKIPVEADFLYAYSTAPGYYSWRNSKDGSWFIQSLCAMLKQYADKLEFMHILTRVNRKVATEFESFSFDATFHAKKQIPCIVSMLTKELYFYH

Row | SMILES | IC50
1 | COc1cc2nc(N(CCCN(C)C)C(=O)c3ccc(S(=O)(=O)N4CCc5ccccc5C4)cc3)sc2cc1OC | > 100 µM (inactive)
2 | CN(C)CCCN(C(=O)c1ccc(S(=O)(=O)N2CCCCCC2)cc1)c1nc2ccc(Br)cc2s1 | > 100 µM (inactive)
3 | CC1CCCC(C)N1CCCNC(=O)C1CCCN(c2ncnc3c2nc2n3CCCCC2)C1 (stereo unspecified) | > 100 µM (inactive)
4 | O=C(C1CCN(c2ncnc3c2nc2n3CCCCC2)CC1)N1CCC(Cc2ccccc2)CC1 | > 100 µM (inactive)
5 | O=C(CCCn1c(=O)c2ccccc2n(Cc2ccc(Cl)cc2)c1=O)NC1CCN(Cc2ccccc2)CC1 | > 100 µM (inactive)
6 | COc1ccc2sc(N(CCCN(C)C)C(=O)c3ccc(S(=O)(=O)N(C)Cc4ccccc4)cc3)nc2c1 | > 100 µM (inactive)
7 | COc1cccc2sc(N(CCCN(C)C)C(=O)c3ccc(S(=O)(=O)N4CCc5ccccc5C4)cc3)nc12 | > 100 µM (inactive)
8 | O=C(CCCCCN1C(=O)c2cccc3cccc(c23)C1=O)NCCO | > 100 µM (inactive)
9 | CCOC(=O)c1c(NC(=O)COc2ccccc2C#N)sc2c1CC(C)(C)NC2(C)C | > 100 µM (inactive)
10 | COc1cc(/C=C/c2cc[n+](C)cc2)ccc1OCC(=O)Nc1ccc(Cl)c(Cl)c1 | > 100 µM (inactive)
11 | O=C(C1COc2ccccc2O1)N1CCN(CCN2C(=O)c3cccc4cccc(c34)C2=O)CC1 (stereo unspecified) | > 100 µM (inactive)
12 | O=C1c2cccc3cccc(c23)C(=O)N1CCN1CCN(CC(O)COc2ccc3ccccc3c2)CC1 (stereo unspecified) | > 100 µM (inactive)
13 | COC(=O)c1ccc(OCC(O)CN2CCN(CCN3C(=O)c4cccc5cccc(c45)C3=O)CC2)cc1 (stereo unspecified) | > 100 µM (inactive)
14 | CC(C)(C)c1ccc(OCC(O)CN2CCN(CCN3C(=O)c4cccc5cccc(c45)C3=O)CC2)cc1 (stereo unspecified) | > 100 µM (inactive)
15 | COCCOC(=O)c1ccc(NC(=O)CCCCCN2C(=O)c3ccccc3C2=O)cc1 | > 100 µM (inactive)
16 | CC(=O)c1ccccc1OCC(O)CN1CCN(CCN2C(=O)c3cccc4cccc(c34)C2=O)CC1 (stereo unspecified) | > 100 µM (inactive)
17 | CCOc1cccc2sc(N(CCCN(C)C)C(=O)c3ccc(S(=O)(=O)N(CC)Cc4ccccc4)cc3)nc12 | > 100 µM (inactive)
18 | CCCOC(=O)c1ccc(NC(=O)CCCCCN2C(=O)c3ccccc3C2=O)cc1 | > 100 µM (inactive)
19 | COc1ccc(NC(=O)CCCCCN2C(=O)c3cccc([N+](=O)[O-])c3C2=O)cc1 | > 100 µM (inactive)
20 | COc1ccc(OC)c2sc(N(CCCN(C)C)C(=O)c3ccc(S(=O)(=O)N4CCc5ccccc5C4)cc3)nc12 | > 100 µM (inactive)
21 | Cc1ccc(C)c(CN2CCC(CNC(=O)C3CCCN(c4ncnc5c4nc4n5CCCCC4)C3)CC2)c1 (stereo unspecified) | > 100 µM (inactive)

Row | SMILES | IC50
22 | Cc1cccc(C)c1NC(=O)Cn1c(=O)n(CCCC(=O)NC2CCN(Cc3ccccc3)CC2)c(=O)c2ccccc21 | > 100 µM (inactive)
23 | O=C1c2cccc3cccc(c23)C(=O)N1CC1CCN(CC(O)COCc2ccc3c(c2)OCO3)CC1 (stereo unspecified) | > 100 µM (inactive)
24 | O=C(C1CCN(c2ncnc3c2nc2n3CCCCC2)CC1)N1CCN(c2ccccn2)CC1 | > 100 µM (inactive)
25 | O=C1c2cccc3cccc(c23)C(=O)N1CCN1CCN(CC(O)COc2ccc(C3CCCCC3)cc2)CC1 (stereo unspecified) | > 100 µM (inactive)
26 | CCOc1cccc2sc(N(CCCN(C)C)C(=O)c3ccc(S(=O)(=O)N(C)Cc4ccccc4)cc3)nc12 | > 100 µM (inactive)
27 | Cc1ccccc1OCC(O)CN1CCN(CCN2C(=O)c3cccc4cccc(c34)C2=O)CC1 (stereo unspecified) | > 100 µM (inactive)
28 | CCOc1ccc2nc(N(CCCN(C)C)C(=O)c3ccc(S(=O)(=O)N4CCc5ccccc5C4)cc3)sc2c1 | > 100 µM (inactive)
29 | Cc1ccc(-c2oc3ncnc(N)c3c2-c2ccc(C)cc2)cc1 | > 100 µM (inactive)
30 | CC(NC(=O)CCCCCN1C(=O)c2cccc([N+](=O)[O-])c2C1=O)c1ccccc1 (stereo unspecified) | > 100 µM (inactive)
31 | O=C(CCCCCN1C(=O)c2cccc3cccc(c23)C1=O)NCc1cccnc1 | > 100 µM (inactive)
32 | O=C(c1ccco1)N1CCN(C(=O)C2CCN(c3ncnc4c3nc3n4CCCCC3)CC2)CC1 | > 100 µM (inactive)
33 | O=C1c2cccc3cccc(c23)C(=O)N1CCN1CCN(CC(O)COc2ccc3c(c2)OCO3)CC1 (stereo unspecified) | > 100 µM (inactive)
34 | O=C1c2cccc3cccc(c23)C(=O)N1CC1CCN(CC(O)COc2ccc3ccccc3c2)CC1 (stereo unspecified) | > 100 µM (inactive)
35 | Cc1ccc2nc(N(CCCN(C)C)C(=O)c3ccc(S(=O)(=O)N4CCc5ccccc5C4)cc3)sc2c1 | > 100 µM (inactive)
36 | O=C(NCCCN1CCCCC1)C1CCN(c2ncnc3c2nc2n3CCCCC2)CC1 | > 100 µM (inactive)
37 | NNC(=O)c1ccc(CN2C(=O)c3cccc4cccc2c34)cc1 | > 100 µM (inactive)
38 | Cc1cc(NS(=O)(=O)c2ccc(NC(=O)CCCCCN3C(=O)c4ccccc4C3=O)cc2)nc(C)n1 | > 100 µM (inactive)
39 | CN(C)CCCN(C(=O)c1ccc(S(=O)(=O)N2CCCCC2)cc1)c1nc2cc3c(cc2s1)OCO3 | > 100 µM (inactive)
40 | COc1cccc(OCC(O)CN2CCN(CCN3C(=O)c4cccc5cccc(c45)C3=O)CC2)c1 (stereo unspecified) | > 100 µM (inactive)
41 | CC1(C)Cc2c(sc(NC(=O)COc3ccc(Cl)cc3Cl)c2C(N)=O)C(C)(C)N1 | > 100 µM (inactive)
42 | COc1cccc(NC(=O)CCCCCN2C(=O)c3cccc([N+](=O)[O-])c3C2=O)c1 | > 100 µM (inactive)

Row | SMILES | IC50
43 | Cc1cc(C)c2sc(N(CCCN(C)C)C(=O)c3ccc(S(=O)(=O)N(C)C4CCCCC4)cc3)nc2c1 | > 100 µM (inactive)
44 | O=C(NCCCN1CCN(c2ccc(F)cc2)CC1)C1CCCN(c2ncnc3c2nc2n3CCCCC2)C1 (stereo unspecified) | > 100 µM (inactive)
45 | CCC1CCCCN1CCCNC(=O)C1CCN(c2ncnc3c2nc2n3CCCCC2)CC1 (stereo unspecified) | > 100 µM (inactive)
46 | O=C(CCCn1c(=O)c2ccccc2n(Cc2ccccc2F)c1=O)NC1CCN(Cc2ccccc2)CC1 | > 100 µM (inactive)
47 | Cc1ccc(C)c(OCC(O)CN2CCN(CCN3C(=O)c4cccc5cccc(c45)C3=O)CC2)c1 (stereo unspecified) | > 100 µM (inactive)
48 | COc1ccc(CCNC(=O)CCCCCN2C(=O)c3ccccc3C2=O)cc1OC | > 100 µM (inactive)
49 | COc1ccc(COCC(O)CN2CCC(CN3C(=O)c4cccc5cccc(c45)C3=O)CC2)cc1OC (stereo unspecified) | > 100 µM (inactive)
50 | Cc1ccccc1CN1CCC(CNC(=O)C2CCCN(c3ncnc4c3nc3n4CCCCC3)C2)CC1 (stereo unspecified) | > 100 µM (inactive)
51 | CNCc1cc(Br)c(OCC(=O)Nc2ccccc2OC)c(OC)c1 | > 100 µM (inactive)
52 | CCN(Cc1ccccc1)S(=O)(=O)c1ccc(C(=O)N(CCCN(C)C)c2nc3cc4c(cc3s2)OCCO4)cc1 | > 100 µM (inactive)
53 | CCCCOC(=O)c1cccc(NC(=O)CCCCCN2C(=O)c3ccccc3C2=O)c1 | > 100 µM (inactive)
54 | COc1ccc(C)c2sc(N(CCCN(C)C)C(=O)c3ccc(S(=O)(=O)N(C)C)cc3)nc12 | > 100 µM (inactive)
55 | CCOc1ccc2nc(N(CCCN(C)C)C(=O)c3ccc(C(=O)c4ccccc4)cc3)sc2c1 | > 100 µM (inactive)
56 | O=C(NCC1CCN(Cc2ccc(Cl)cc2)CC1)C1CCCN(c2ncnc3c2nc2n3CCCCC2)C1 (stereo unspecified) | > 100 µM (inactive)
57 | O=C(CCCCCN1C(=O)c2ccccc2C1=O)N1CCN(c2ccc([N+](=O)[O-])cc2)CC1 | > 100 µM (inactive)
58 | CCc1ccc2nc(N(CCCN(C)C)C(=O)c3ccc(S(=O)(=O)N4CCc5ccccc5C4)cc3)sc2c1 | > 100 µM (inactive)
59 | CC1CCCCN1C(=O)C1CCN(c2ncnc3c2nc2n3CCCCC2)CC1 (stereo unspecified) | > 100 µM (inactive)
60 | O=C(CCCCCN1C(=O)c2ccccc2C1=O)NCc1ccccn1 | > 100 µM (inactive)
61 | O=C(c1ccc(S(=O)(=O)N2CCCC2)cc1)N1CCC(CN2C(=O)c3cccc4cccc(c34)C2=O)CC1 | > 100 µM (inactive)
62 | COc1ccc2sc(N(CCCN(C)C)C(=O)c3ccc(S(=O)(=O)N4CCc5ccccc5C4)cc3)nc2c1 | > 100 µM (inactive)
63 | CCCN1CCN(C(=O)C2CCN(c3ncnc4c3nc3n4CCCCC3)CC2)CC1 | > 100 µM (inactive)

Row | SMILES | IC50
64 | O=C(NCC1CCN(Cc2ccccc2F)CC1)C1CCCN(c2ncnc3c2nc2n3CCCCC2)C1 (stereo unspecified) | > 100 µM (inactive)
65 | O=C1c2cccc3cccc(c23)C(=O)N1CCN1CCN(CC(O)COc2ccc(Cl)cc2)CC1 (stereo unspecified) | > 100 µM (inactive)
66 | O=C1c2cccc3cccc(c23)C(=O)N1CCN1CCN(CC(O)COCc2ccc(Cl)cc2)CC1 (stereo unspecified) | > 100 µM (inactive)
67 | O=C(NCC1CCN(Cc2ccc(F)cc2)CC1)C1CCCN(c2ncnc3c2nc2n3CCCCC2)C1 (stereo unspecified) | > 100 µM (inactive)
68 | Cc1ccccc1NC(=S)NC(=O)CCCCCN1C(=O)c2ccccc2C1=O | > 100 µM (inactive)
69 | O=C(CCCCCN1C(=O)c2ccccc2C1=O)Nc1ccc(S(=O)(=O)N2CCCCC2)cc1 | > 100 µM (inactive)
70 | O=C(CCCCn1c(=O)c2ccccc2n(Cc2ccccc2)c1=O)NC1CCN(Cc2ccccc2)CC1 | > 100 µM (inactive)
71 | Cc1ccc(NC(=O)C2CCN(c3ncnc4c3nc3n4CCCCC3)CC2)cc1Cl | > 100 µM (inactive)
72 | CC1CN(S(=O)(=O)c2ccc(NC(=O)CCCCCN3C(=O)c4ccccc4C3=O)cc2)CC(C)O1 (stereo unspecified) | > 100 µM (inactive)
73 | CCN(Cc1ccccc1)S(=O)(=O)c1ccc(C(=O)N(CCCN(C)C)c2nc3cc(C)cc(C)c3s2)cc1 | > 100 µM (inactive)
74 | Cc1cc(C)c2sc(N(CCCN(C)C)C(=O)c3ccc(S(=O)(=O)N4CCc5ccccc5C4)cc3)nc2c1 | > 100 µM (inactive)
75 | COc1ccc(-c2oc3ncnc(N)c3c2-c2ccccc2)cc1 | > 100 µM (inactive)
76 | CN1CCN(CCCNC(=O)c2ccc(/C=C3\Oc4ccccc4N(Cc4ccc(Cl)cc4)C3=O)cc2)CC1 | > 100 µM (inactive)
77 | CC(=O)c1ccc(OCC(O)CN2CCN(CCN3C(=O)c4cccc5cccc(c45)C3=O)CC2)cc1 (stereo unspecified) | > 100 µM (inactive)
78 | O=C1c2cccc3cccc(c23)C(=O)N1CCN1CCN(CC(O)COc2ccccc2)CC1 (stereo unspecified) | > 100 µM (inactive)
79 | Cc1nc2ccccc2c(=O)n1NC(=O)c1ccc(OC(F)F)cc1 | > 100 µM (inactive)
80 | O=C(CCCCCN1C(=O)c2ccccc2C1=O)Nc1nc(C2CC2)cs1 | > 100 µM (inactive)
81 | O=C(NCC1CCN(Cc2cccc(Cl)c2)CC1)C1CCCN(c2ncnc3c2nc2n3CCCCC2)C1 (stereo unspecified) | > 100 µM (inactive)
